Assay results: patent US9029414B2, “Triterpenoid compounds and methods of use thereof” (Biotechnology Research Corporation, priority 2008, dated 2015)

Columns and labels:
[1] = target: serotonin (5-HT1D subtype) receptor (Homo sapiens, UniProt P28221); test: Radioligand competition binding assay, 5-HT1D; conditions: 10 μM in duplicate, read-out: % inhibition of control specific binding
Procedure: (§1) DA001 was evaluated against 109 receptor binding assays and 17 enzyme assays, comprising of selective, central and peripheral therapeutically-relevant targets. Radioligand competition assays were conducted whereby DA001 was tested at one concentration (10 μM) in duplicate. […] It could compete with the radioligand [^125I-NDP-alpha-melanocyte-stimulating hormone (α-MSH)] binding for MC1 and MC4 but not MC3 and MC5 nor the related family, the melanin concentrating hormone receptors (MCH1 and MCH2).

[2] = tested on: lymphocyte infiltrates in spinal cord of EAE mice; test: Hematoxylin and eosin staining of spinal cords of EAE mice; assay type: in vivo; conditions: DA001-treated vs vehicle-treated EAE mice
Procedure: On day 21, animals were anesthetized intraperitoneally with 4% (w/v) chloral hydrate (BDH) in 0.9% (w/v) saline (USB). Once the anesthetics has set it, the animals were then perfused transcardially (Gilson) with 50 mL of 37° C., 0.005% (w/v) heparinized (Sigma) saline (USB), followed by 80 mL of ice-cold, 4% (w/v) paraformaldehyde (Sigma) in Dulbecco's Phosphate Buffered Saline (GIBCO). The perfused spinal cords were then further fixed in 4% (w/v) paraformaldehyde (Sigma) overnight at 4° C. After overnight incubation, the samples were prepared in an automated tissue processor for dehydration, clearing and paraffin infiltration (Leica EG1150H) followed by paraffin embedding (Leica RM2255). After overnight incubation at room temperature, the blocks were sectioned at 6 μm thickness on microtome (Leica 1250) and laid on Histobond slides (Merienfeld). The slides were incubated at 60 C oven for 24 h before being stained. On the day of staining, the slides were rehydrated in a series of EtOH solutions. The rehydrated slides were then submerged in hematoxyline solution for 20 min at room temperature. The slides were differentiated in acidic solution before being fixed in a series of EtOH solutions then eosin at 20 min in room temperature. […]

[3] = tested on: kainate receptor; test: Radioligand competition binding assay, kainate; conditions: 10 μM in duplicate
Procedure: as §1

[4] = target: EP3 receptor (Homo sapiens, UniProt P43115); test: Radioligand competition binding assay, EP3; conditions: EP3, target PGE2; compound at 10 μM in duplicate; read-out: % inhibition of control specific binding
Procedure: (§2) To determine the targets of DA compounds, the compound was assessed in binding assays for the family of prostanoid receptors. Both compounds were tested at a single concentration (10 μM) in duplicate. DA001 and DA021 inhibit the ligand binding of prostaglandin E2 receptors EP1, EP2 and EP4 and moderately to prostaglandin (PGF) to its receptor (FP), but not prostaglandin I (PGI2), thromoboxane A and prostaglandin D2 to their receptors.

[5] = target: DP receptor (Homo sapiens, UniProt Q13258); test: Radioligand competition binding assay, DP; conditions: target PGD, compound at 10 μM in duplicate, read-out: % inhibition of control specific binding
Procedure: as §2

[6] = tested on: hippocampal neurons; test: Hippocampal neuron survival assay against NMDA excitotoxicity (LDH); assay type: cell-based, Sprague-Dawley rats; conditions: 30 μM 24 hrs, NMDA 10-200 μM 20 min
Procedure: Hippocampal neurons/cortical neurons were prepared from embryonic day 18 Sprague-Dawley rats. After the cortices had been removed from the brain, isolated cells were plated onto Poly d-Lysine (PDL) (P0899, Sigma)-coated 48 well plates (150687, NUNC) at a density of 2×10^5 cell per well using Neurobasal Medium (NB) (21103-049, Gibco) with B27 supplement (17504-044, Gibco), penicillin/streptomycin (15140, Gibco) and 1 mM L-glutamine (25030, Gibco). The cell culture was incubated at 37° C. in a humidified atmosphere of 5% CO2 in air. Medium was changed to growth medium (Neurobasal Medium with penicillin/streptomycin and B27 supplement) after 3 hours. Half medium was changed with growth medium every 2-3 days to maintain the cells until day 10 in vitro (DIV 10). Serial dilutions of samples were prepared in growth medium and DMSO was used as vehicle control. For pre-treating assay, half of the medium was removed from wells, and equal amount of diluted samples were replaced. Cells were then incubated for 2 hours at 37° C. in a humidified atmosphere of 5% CO2 in air. […] Afterwards, cells were incubated in growth medium for 18-24 hours and detected with Cytotoxicity Detection Kit (1644793, Roche).
Hippocampal neurons were treated with DA021 and subsequently subjected to varying concentrations of NMDA. […] LDH release into the medium was then measured.

Chain of EP3 receptor (P43115 whole entry): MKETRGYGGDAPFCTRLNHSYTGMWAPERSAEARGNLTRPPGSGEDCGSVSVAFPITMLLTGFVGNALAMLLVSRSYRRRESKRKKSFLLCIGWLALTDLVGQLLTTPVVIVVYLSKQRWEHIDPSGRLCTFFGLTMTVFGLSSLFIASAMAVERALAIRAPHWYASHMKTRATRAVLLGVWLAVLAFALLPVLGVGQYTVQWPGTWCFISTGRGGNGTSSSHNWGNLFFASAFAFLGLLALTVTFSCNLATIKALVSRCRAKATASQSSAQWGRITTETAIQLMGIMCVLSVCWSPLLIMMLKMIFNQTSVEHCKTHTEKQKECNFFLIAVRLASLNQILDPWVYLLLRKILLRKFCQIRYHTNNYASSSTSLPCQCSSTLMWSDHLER
Chain of serotonin (5-HT1D subtype) receptor (P28221 whole entry): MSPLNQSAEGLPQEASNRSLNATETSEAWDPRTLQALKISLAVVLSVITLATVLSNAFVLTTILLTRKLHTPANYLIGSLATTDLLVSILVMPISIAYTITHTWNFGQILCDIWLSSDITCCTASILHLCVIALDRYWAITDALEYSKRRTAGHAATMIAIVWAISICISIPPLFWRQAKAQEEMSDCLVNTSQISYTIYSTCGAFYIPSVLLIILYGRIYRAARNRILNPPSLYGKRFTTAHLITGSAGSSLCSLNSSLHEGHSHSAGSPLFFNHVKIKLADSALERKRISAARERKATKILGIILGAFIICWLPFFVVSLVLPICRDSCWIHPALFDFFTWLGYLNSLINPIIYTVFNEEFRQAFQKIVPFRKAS
Chain of DP receptor (Q13258 whole entry): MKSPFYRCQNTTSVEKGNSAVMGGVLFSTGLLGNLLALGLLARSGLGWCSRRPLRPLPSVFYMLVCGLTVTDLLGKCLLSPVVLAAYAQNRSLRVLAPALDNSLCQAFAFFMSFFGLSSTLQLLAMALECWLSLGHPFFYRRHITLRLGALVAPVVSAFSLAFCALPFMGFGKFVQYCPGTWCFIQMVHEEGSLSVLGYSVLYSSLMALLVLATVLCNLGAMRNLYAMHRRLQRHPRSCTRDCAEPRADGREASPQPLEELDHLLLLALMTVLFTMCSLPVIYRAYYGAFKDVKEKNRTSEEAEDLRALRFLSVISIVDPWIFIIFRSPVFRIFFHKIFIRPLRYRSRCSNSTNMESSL

## C=C(C)[C@@H]1CC[C@]2(C(=O)O)CC[C@]3(C)C(CC[C@@H]4[C@@]5(C)CC[C@H](O[C@@H]6OC[C@H](O)[C@H](O)[C@H]6O[C@@H]6O[C@@H](C)[C@H](O)[C@@H](O)[C@H]6O)[C@@](C)(CO)[C@@H]5CC[C@]43C)[C@@H]12 (stereo partly drawn) [DA001, 3-O-[α-L-rhamnopyranosyl-(1→2)-α-L-arabinopyranosyl]-3,23-dihydroxy-20(29)-lupen-28-oic acid]
[1]
  inhibition at 10 µM: 30%
[2]
  lymphocytes surrounding axons / lymphocyte infiltration in spinal cord (H&E): dramatically reduced
[3]
  % inhibition of control specific binding: 35%

## C=C(C)[C@@H]1CC[C@]2(/C=N/O)CC[C@]3(C)C(CCC4[C@@]5(C)CCC(=O)[C@@](C)(CO)[C@@H]5CC[C@]43C)C12 (stereo partly drawn) [DA021]
[4]
  inhibition at 10 µM: -3%
[5]
  inhibition at 10 µM: 0%
[6]
  protection from NMDA-induced excitotoxicity (LDH release): protects neurons against differing concentrations of NDMA
